Where a name gives a salt, the structure may show the parent alone.
Experiments:
[1] = Hygroscopicity, % weight gain in 1 week at 56% and 98% relative humidity; assay type: physicochemical; details: one week at 56% / 98% RH
[2] = 0.05 M phosphate buffer, pH 7.0 and 2.5

hygroscopicity compared with free base (in words) [1]: more hydroscopic than free azacitidine
rate of dissolution compared with free base (in words) (1.0 mg in water): less than the free azacitidine base
Dissolution In water (1.0 mg/mL) (time to dissolve, with Sonication): 1 min
SMILES: Nc1ncn([C@@H]2O[C@H](CO)C(O)C2O)c(=O)n1 (stereo partly shown) [Compound 19, azacitidine mesylate]
solution stability compared with free base (in words) [2]: slightly less than the free azacitidine base

— patent US20100062992A1 (SuperGen, Inc., priority 2004, published 2010)
